Conditions: sheep, in vivo, 7 days
Description: In another embodiment, the present disclosure provides a composition that achieves both immediate and extended release of an active pharmaceutical ingredient (API) upon administration to a subject, the composition comprising chitosan particles and API, the release occurring through at least one of diffusion of API from the particles and breakdown of the particles to release entrapped API. In additional embodiments, the present disclosure provides a composition that achieves both immediate and extended release of an API which is characterized by any one or more of the following exemplary features: the chitosan particles comprise crosslinked chitosan; the API is an NSAID; the API is diclofenac which optionally may be in whole or in part in crystalline form; the immediate release occurs over a period of 12 hours from the administration, and releases from 5 to 70% of API from the particles; the extended release occurs over a period of 0.5 to 7 days from administration, and releases 5 to 70% of the API from the particles; the particles are taken up by the synovium after administration to the subject. […] Accordingly, the incorporation of API into a crosslinked chitosan particle as disclosed herein may provide an extended release of API into the synovial fluid.

## O=C(O)Cc1ccccc1Nc1c(Cl)cccc1Cl [diclofenac, 2-(2-(2,6-dichlorophenylamino)phenyl)acetic acid]
  synovial fluid concentration of diclofenac: about 0.05 mg/mL

— US20180000737A1, “INJECTABLE AGGREGATES FOR JOINT AND SOFT TISSUE DISTRESS” (VISGO THERAPEUTICS, INC., priority 2015, published 2018)
